Data published in paper PMC12109412.

Experiment: Single-molecule FRET cyclization (looping) of surface-immobilised 83 bp duplex with complementary 10-nt 5' overhangs; noncovalent ring closure by sticky-end hybridisation triggered by 1 M NaCl (no ligase)
Conditions: the molecule shown is the open-chain precursor, water, 50 mM Tris-HCl, 3 mM Trolox, glucose oxidase/catalase oxygen scavenger, other

**Q.** Which ring closure, halflife does the source give for “DNA 5'-Cy5-acggattctgtgaaacggtggaggtgaggaT(biotin)agtcatgggtcaattagaagtcataggagaagtattaagggagtctatattgaggtactagc-3' / DNA 5'-Cy3-cagaatccgtgctagtacctcaatatagactcccttaatacttctcctatgacttctaattgacccatgactatcctcacctccaccgtttca-3'” here?
**A.** The ring closure, halflife was 31.5 min.

**Q.** With “DNA 5'-Cy5-acggattctgtgaaacggtggaggtgaggaT(biotin)agtcatgggtcaattagaagtcataggagaagtattaagggagtctatattgaggtactagc-3' / RNA 5'-Cy3-cagaauccgugcuaguaccucaauauagacucccuuaauacuucuccuaugacuucuaauugacccaugacuauccucaccuccaccguuuca-3'” as the substance, how does the ring closure, halflife read?
**A.** Its ring closure, halflife is 20.4 min.

**Q.** Which ring closure, halflife does the source give for “DNA 5'-Cy5-agagaaagaggcaaaaggggacggaagggaT(biotin)ggagccagaggagggggtgacagttgagtctcagccacaggtgaaggtggagccactggagg-3' / RNA 5'-Cy3-cucuuucucuccuccaguggcuccaccuucaccuguggcugagacucaacugucacccccuccucuggcuccaucccuuccguccccuuuugc-3'” here?
**A.** Its ring closure, halflife is 26.1 min.

**Q.** Which ring closure, halflife does the source give for “DNA 5'-Cy5-cctccagtggctccaccttcacctgtggcT(biotin)gagactcaactgtcaccccctcctctggctccatcccttccgtccccttttgcctctttctct-3' / RNA 5'-Cy3-ccacuggaggagagaaagaggcaaaaggggacggaagggauggagccagaggagggggugacaguugagucucagccacaggugaagguggag-3'” here?
**A.** The ring closure, halflife was 10.8 min.

**Q.** With “DNA 5'-Cy5-gaagaagaggaaaaaagaaaagggacagaT(biotin)ggcaatgatggagccagggacggaggcgatggagccagtggagccggagatgaagcctctgga-3' / RNA 5'-Cy3-ccucuucuucuccagaggcuucaucuccggcuccacuggcuccaucgccuccgucccuggcuccaucauugccaucugucccuuuucuuuuuu-3'” as the substance, how does the ring closure, halflife read?
**A.** Its ring closure, halflife is 21.7 min.

**Q.** Which ring closure, halflife does the source give for “DNA 5'-Cy5-tccagaggcttcatctccggctccactggcT(biotin)ccatcgcctccgtccctggctccatcattgccatctgtcccttttcttttttcctcttcttc-3' / RNA 5'-Cy3-agccucuggagaagaagaggaaaaaagaaaagggacagauggcaaugauggagccagggacggaggcgauggagccaguggagccggagauga-3'” here?
**A.** The ring closure, halflife was 10.3 min.
